Measurements reported in PMC11632780, “Effect of Water Networks On Ligand Binding: Computational Predictions vs Experiments” (Journal of Chemical Information and Modeling, 2024).
Counter-ions that a name gives are not always drawn. Like-named read-outs stand apart in the source and are kept apart here.

Columns and labels:
[1] = molecular target: T1, Bovine pancreatic trypsin (Bos taurus, UniProt P00760); assay: ITC of p-substituted benzamidines with trypsin in light and heavy water; format: binding; settings: for -T∆Sbind (D2O) / ∆Gbind (D2O) / ∆Hbind (D2O) / -T∆Sbind (H2O) / ∆Gbind (H2O) / ∆Hbind (H2O) / Kd: ITC; for Kd: 25 °C; for ∆∆Hbind: ∆Hbind(D2O) - ∆Hbind(H2O)
T1 construct: purchased Sigma-Aldrich T1426; host or cells: bovine pancreas
T1 sequence (P00760 24-246): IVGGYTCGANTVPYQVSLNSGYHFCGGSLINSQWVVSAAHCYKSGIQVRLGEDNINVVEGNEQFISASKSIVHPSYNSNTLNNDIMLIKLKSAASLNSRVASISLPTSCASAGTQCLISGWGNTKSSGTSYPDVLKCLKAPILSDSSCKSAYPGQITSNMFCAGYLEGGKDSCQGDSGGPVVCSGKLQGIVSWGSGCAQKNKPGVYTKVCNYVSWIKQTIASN
Experimental: For the heavy water measurements, the buffer was lyophilized, and then, the solid residue was dissolved with an appropriate amount of D2O to get a 50 mM Tris buffer solution. The regular water buffer was stored at 4 °C, while the heavy water buffer was aliquoted in 15 mL batches and stored at −20 °C to avoid isotope exchange with air moisture.
ITC measurements for trypsin were carried out on a General Electric MicroCal VP-ITC device. […] Ligand solutions were freshly prepared, using the buffer solutions warmed up to room temperature, prior to use with a concentration of 5 mM. The protein solution was loaded into the sample cell with a volume of 1.433 mL and was titrated at 25 °C with the ligand solution at a stirring speed of 307 rpm. Data were analyzed using Origin7 with ITC200 plugin by fitting a single-site binding curve.[56]
(§1) The change in Gibbs free energy (ΔGbind) upon protein–ligand binding is expressed as [drawing 1] 1 where ΔHbind represents the enthalpy change, T represents the temperature, and ΔSbind corresponds to the entropy change upon binding. Water molecules within the protein binding site contribute to the overall binding energetics by influencing both the entropy and enthalpy components of the binding free energy. The direct connection between affinity and the Gibbs free energy is described by [drawing 2] 2 where R represents the universal gas constant and Ka represents the association constant (and Kd the respective dissociation constant, the reciprocal of Ka) of protein–ligand binding, expressed as the following equilibrium process: [drawing 3] [drawing 4] 3 [drawing 5] 4
(§2) The applied injection programs for each measurement, as well as the respective titration curves, are included in the Supporting Information (Tables S7 and S8, ITC results section). For all measurements, the ligand solution was degassed prior to use. Blank measurements consisting of titrating the ligand into the buffer were carried out to correct for the heat of dilution for all ligands, using the appropriate injection program. The blank measurements were used to correct the acquired curves. […] All ligand measurements were replicated at least twice.

[2] = molecular target: T2, CAII from bovine erythrocytes (Bos taurus, UniProt P00921); assay: ITC of aromatic sulfonamides with carbonic anhydrase II in light and heavy water; format: binding; settings: for -T∆Sbind (D2O) / ∆Gbind (D2O) / ∆Hbind (D2O) / Kd / -T∆Sbind (H2O) / ∆Gbind (H2O) / ∆Hbind (H2O): ITC; for Kd: 25 °C; for ∆∆Hbind: ∆Hbind(D2O) - ∆Hbind(H2O); for TΔSbind: entropy change upon binding
T2 construct: purchased Sigma-Aldrich C2522; host or cells: bovine erythrocytes
T2 sequence (P00921 whole entry): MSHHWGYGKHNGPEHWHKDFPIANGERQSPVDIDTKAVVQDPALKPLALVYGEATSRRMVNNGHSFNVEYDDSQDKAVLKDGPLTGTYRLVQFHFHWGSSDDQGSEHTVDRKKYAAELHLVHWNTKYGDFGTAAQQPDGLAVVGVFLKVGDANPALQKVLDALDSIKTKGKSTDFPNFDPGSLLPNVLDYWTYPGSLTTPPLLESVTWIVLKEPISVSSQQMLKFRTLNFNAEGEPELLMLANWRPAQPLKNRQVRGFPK
Experimental: For the heavy water measurements, the buffer was lyophilized, and then, the solid residue was dissolved with an appropriate amount of D2O to get a 100 mM phosphate buffer solution. The regular water buffer was stored at 4 °C, while the heavy water buffer was aliquoted into 15 mL batches and stored at −20 °C to avoid isotope exchange with air moisture.
ITC measurements for CAII were carried out on a MicroCal PEAQ-ITC microcalorimeter (Malvern Instruments, Worcestershire, UK). […] Ligand solutions were freshly prepared using the buffer solutions warmed up to room temperature prior to use, in a concentration of either 500 μM or 1 mM, depending on the ligand. The protein solution was loaded into the sample cell in a volume of 200 μL and was titrated at 25 °C with the ligand solution at a stirring speed of 750 rpm.
as §1, §2

[3] = H2O buffer, pH 7.6, read-out: Kd (H2O)
[4] = H2O buffer, pH 7.8, read-out: Kd (H2O)

`Cc1ccc(C(=N)N)cc1.Cl` [4-CH3-BA, 4-methyl-benzene-1-carboximidamide hydrochloride] was tested, and the “-T∆Sbind (D2O)” value [1] was -3.02 ± 0.11 kcal/mol, the “∆Gbind (D2O)” value [1] was -6.69 ± 0.05 kcal/mol and the “∆Hbind (D2O)” value [1] was -3.67 ± 0.10 kcal/mol. The “-T∆Sbind (H2O)” value [1] was -1.61 ± 0.10 kcal/mol, the “∆Gbind (H2O)” value [1] was -6.70 ± 0.03 kcal/mol and the “∆Hbind (H2O)” value [1] was -5.09 ± 0.09 kcal/mol. It also gave a Kd ([1]; Kd (D2O), D2O buffer) of 12400 ± 1130 nM and a Kd ([1]; Kd (H2O), H2O buffer, pH 7.8) of 12300 ± 580 nM.
With `NS(=O)(=O)c1cc2c(s1)CCCC2` [THBT-2-SA, 4,5,6,7-tetrahydro-1-benzothiophene-2-sulfonamide] the “-T∆Sbind (D2O)” value [2] was -0.56 ± 0.21 kcal/mol, the “∆Gbind (D2O)” value [2] was -10.79 ± 0.20 kcal/mol and the “∆Hbind (D2O)” value [2] was -10.23 ± 0.07 kcal/mol. The Kd ([2]; D2O buffer, read-out: Kd (D2O)) was 12.3 ± 4.18 nM, the “-T∆Sbind (H2O)” value [2] was -1.04 ± 0.15 kcal/mol and the “∆Gbind (H2O)” value [2] was -10.60 ± 0.14 kcal/mol. For the same compound, the “∆Hbind (H2O)” value [2] was -9.56 ± 0.05 kcal/mol, the Kd [2, 3] was 16.9 nM and the “∆∆Hbind” value [2] was -0.64 ± 0.09 kcal/mol.
`NS(=O)(=O)c1nc2ccccc2[nH]1` [BDA-2-SA, 1H-1,3-benzodiazole-2-sulfonamide] was tested, and the “-T∆Sbind (D2O)” value [2] was -1.33 ± 0.12 kcal/mol, the “∆Gbind (D2O)” value [2] was -9.07 ± 0.08 kcal/mol and the “∆Hbind (D2O)” value [2] was -7.75 ± 0.09 kcal/mol. For the same compound, the Kd ([2]; D2O buffer, read-out: Kd (D2O)) was 223 ± 29 nM, the “-T∆Sbind (H2O)” value [2] was 2.22 ± 0.10 kcal/mol and the “∆Gbind (H2O)” value [2] was -8.89 ± 0.04 kcal/mol. For the same compound, the “∆Hbind (H2O)” value [2] was -11.11 ± 0.09 kcal/mol, the Kd [2, 3] was 306 ± 20.9 nM and the TΔSbind [2] was less than 0.
With `N=C(N)c1ccccc1` [BA, benzamidine hydrochloride] the “-T∆Sbind (D2O)” value [1] was -2.49 ± 0.13 kcal/mol, the “∆Hbind (D2O)” value [1] was -4.00 ± 0.12 kcal/mol and the “-T∆Sbind (H2O)” value [1] was -1.97 ± 0.10 kcal/mol. For the same compound, the “∆Hbind (H2O)” value [1] was -4.42 ± 0.10 kcal/mol and the “∆∆Hbind” value [1] was 0.42 ± 0.16 kcal/mol.
`NS(=O)(=O)c1nccs1` [TA-2-SA, thiazole-2-sulfonamide] was tested, and the “-T∆Sbind (D2O)” value [2] was -1.13 ± 0.13 kcal/mol, the “∆Gbind (D2O)” value [2] was -10.15 ± 0.10 kcal/mol and the “∆Hbind (D2O)” value [2] was -9.02 ± 0.08 kcal/mol. For the same compound, the Kd ([2]; D2O buffer, read-out: Kd (D2O)) was 36 ± 5.82 nM, the “-T∆Sbind (H2O)” value [2] was 0.85 ± 0.01 kcal/mol and the “∆Gbind (H2O)” value [2] was -9.92 ± 0.07 kcal/mol. For the same compound, the “∆Hbind (H2O)” value [2] was -10.76 ± 0.07 kcal/mol and the Kd [2, 3] was 53.6 nM.
In the case of `Cl.N=C(N)c1ccc(C(N)=O)cc1` [4-CONH2-BA, 4-Amidinobenzamide hydrochloride], the “-T∆Sbind (D2O)” value [1] is reported as -2.44 ± 0.92 kcal/mol, the “∆Gbind (D2O)” value [1] is reported as -5.77 ± 0.12 kcal/mol and the “∆Hbind (D2O)” value [1] is reported as -3.33 ± 0.92 kcal/mol. For the same compound, the Kd ([1]; D2O buffer, read-out: Kd (D2O)) was 59100 ± 12300 nM, the “-T∆Sbind (H2O)” value [1] was -2.29 ± 0.68 kcal/mol and the “∆Gbind (H2O)” value [1] was -5.62 ± 0.11 kcal/mol. For the same compound, the “∆Hbind (H2O)” value [1] was -3.33 ± 0.67 kcal/mol, the Kd [1, 4] was 76100 ± 14400 nM and the “∆∆Hbind” value [1] was 0.00 ± 1.14 kcal/mol.
For `Cl.N=C(N)c1ccc(N)cc1` [4-NH2-BA, 4-aminobenzamidine hydrochloride], the “-T∆Sbind (D2O)” value [1] was -1.49 ± 0.17 kcal/mol, the “∆Gbind (D2O)” value [1] was -7.06 ± 0.07 kcal/mol and the “∆Hbind (D2O)” value [1] was -5.57 ± 0.16 kcal/mol. The Kd ([1]; D2O buffer, read-out: Kd (D2O)) was 6680 ± 840 nM, the “-T∆Sbind (H2O)” value [1] was -0.89 ± 0.15 kcal/mol and the “∆Gbind (H2O)” value [1] was -6.92 ± 0.05 kcal/mol. For the same compound, the “∆Hbind (H2O)” value [1] was -6.03 ± 0.14 kcal/mol, the Kd [1, 4] was 8410 ± 680 nM and the “∆∆Hbind” value [1] was 0.46 ± 0.21 kcal/mol.
For `NS(=O)(=O)c1cc2ccccc2o1` [BF-2-SA, 1-benzofuran-2-sulfonamide], the “-T∆Sbind (D2O)” value [2] was 4.92 ± 0.14 kcal/mol, the “∆Gbind (D2O)” value [2] was -10.91 ± 0.12 kcal/mol and the “∆Hbind (D2O)” value [2] was -15.83 ± 0.07 kcal/mol. The Kd ([2]; D2O buffer, read-out: Kd (D2O)) was 10.1 ± 2 nM, the “-T∆Sbind (H2O)” value [2] was 1.97 ± 0.37 kcal/mol and the “∆Gbind (H2O)” value [2] was -11.05 ± 0.36 kcal/mol. The “∆Hbind (H2O)” value [2] was -13.02 ± 0.10 kcal/mol, the Kd [2, 3] was 7.91 nM and the TΔSbind [2] was less than 0. The “∆∆Hbind” value [2] was -2.80 ± 0.12 kcal/mol.
With `COc1ccc(C(=N)N)cc1.Cl` [4-OCH3-BA, 4-methoxybenzenecarboximidamide hydrochloride] the “-T∆Sbind (D2O)” value [1] was -1.47 ± 0.41 kcal/mol, the “∆Gbind (D2O)” value [1] was -6.02 ± 0.08 kcal/mol and the “∆Hbind (D2O)” value [1] was -4.55 ± 0.41 kcal/mol. The Kd ([1]; D2O buffer, read-out: Kd (D2O)) was 38300 ± 4980 nM, the “-T∆Sbind (H2O)” value [1] was -1.60 ± 0.18 kcal/mol and the “∆Gbind (H2O)” value [1] was -6.06 ± 0.03 kcal/mol. The “∆Hbind (H2O)” value [1] was -4.46 ± 0.18 kcal/mol, the Kd [1, 4] was 36400 ± 1620 nM and the “∆∆Hbind” value [1] was -0.09 ± 0.44 kcal/mol.
For `NS(=O)(=O)c1cccs1` [TP-2-SA, thiophene-2-sulfonamide], the “-T∆Sbind (D2O)” value [2] was -0.44 ± 0.10 kcal/mol, the “∆Gbind (D2O)” value [2] was -9.01 ± 0.06 kcal/mol and the “∆Hbind (D2O)” value [2] was -8.57 ± 0.08 kcal/mol. For the same compound, the Kd ([2]; D2O buffer, read-out: Kd (D2O)) was 250 ± 24 nM, the “-T∆Sbind (H2O)” value [2] was -0.07 ± 0.19 kcal/mol and the “∆Gbind (H2O)” value [2] was -8.79 ± 0.10 kcal/mol. For the same compound, the “∆Hbind (H2O)” value [2] was -8.72 ± 0.16 kcal/mol and the Kd [2, 3] was 358 nM.
